Tests used:
[1] = target: T1, Alpha-1A adrenergic receptor (Homo sapiens, UniProt P35348)
T1 sequence (P35348 whole entry): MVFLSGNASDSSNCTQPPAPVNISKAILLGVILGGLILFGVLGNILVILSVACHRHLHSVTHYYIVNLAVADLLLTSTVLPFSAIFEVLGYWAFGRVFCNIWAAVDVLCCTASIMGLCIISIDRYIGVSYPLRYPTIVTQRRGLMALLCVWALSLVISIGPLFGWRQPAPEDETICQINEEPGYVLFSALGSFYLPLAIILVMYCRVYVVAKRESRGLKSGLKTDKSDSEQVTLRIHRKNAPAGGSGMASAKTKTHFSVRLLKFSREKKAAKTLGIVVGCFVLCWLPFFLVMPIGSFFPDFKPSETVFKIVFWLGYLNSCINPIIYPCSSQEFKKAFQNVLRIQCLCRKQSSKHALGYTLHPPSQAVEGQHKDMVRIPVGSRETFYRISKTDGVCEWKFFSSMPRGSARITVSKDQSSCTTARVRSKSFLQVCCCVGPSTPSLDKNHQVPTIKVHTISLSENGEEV

[2] = target: Muscarinic acetylcholine receptor M3 (Homo sapiens, UniProt P20309)
[3] = target: Beta-2 adrenergic receptor (Homo sapiens, UniProt P07550)
[4] = target: T2, Type-1 angiotensin II receptor (Homo sapiens, UniProt P30556)
T2 sequence (P30556 whole entry): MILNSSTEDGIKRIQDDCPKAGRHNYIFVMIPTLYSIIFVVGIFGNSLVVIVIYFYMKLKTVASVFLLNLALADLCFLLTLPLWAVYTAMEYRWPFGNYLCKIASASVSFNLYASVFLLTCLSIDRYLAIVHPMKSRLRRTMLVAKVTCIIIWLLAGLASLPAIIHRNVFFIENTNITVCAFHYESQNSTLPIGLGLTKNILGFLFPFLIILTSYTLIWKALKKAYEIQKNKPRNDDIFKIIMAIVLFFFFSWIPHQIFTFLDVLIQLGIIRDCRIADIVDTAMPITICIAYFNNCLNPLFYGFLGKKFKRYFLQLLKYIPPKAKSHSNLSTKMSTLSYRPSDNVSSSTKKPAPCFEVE

[5] = target: Neuronal acetylcholine receptor subunit alpha-4 (Homo sapiens, UniProt P43681)
Glucocorticoid receptor = target: T3, Glucocorticoid receptor (Homo sapiens, UniProt P04150)
T3 sequence (P04150 whole entry): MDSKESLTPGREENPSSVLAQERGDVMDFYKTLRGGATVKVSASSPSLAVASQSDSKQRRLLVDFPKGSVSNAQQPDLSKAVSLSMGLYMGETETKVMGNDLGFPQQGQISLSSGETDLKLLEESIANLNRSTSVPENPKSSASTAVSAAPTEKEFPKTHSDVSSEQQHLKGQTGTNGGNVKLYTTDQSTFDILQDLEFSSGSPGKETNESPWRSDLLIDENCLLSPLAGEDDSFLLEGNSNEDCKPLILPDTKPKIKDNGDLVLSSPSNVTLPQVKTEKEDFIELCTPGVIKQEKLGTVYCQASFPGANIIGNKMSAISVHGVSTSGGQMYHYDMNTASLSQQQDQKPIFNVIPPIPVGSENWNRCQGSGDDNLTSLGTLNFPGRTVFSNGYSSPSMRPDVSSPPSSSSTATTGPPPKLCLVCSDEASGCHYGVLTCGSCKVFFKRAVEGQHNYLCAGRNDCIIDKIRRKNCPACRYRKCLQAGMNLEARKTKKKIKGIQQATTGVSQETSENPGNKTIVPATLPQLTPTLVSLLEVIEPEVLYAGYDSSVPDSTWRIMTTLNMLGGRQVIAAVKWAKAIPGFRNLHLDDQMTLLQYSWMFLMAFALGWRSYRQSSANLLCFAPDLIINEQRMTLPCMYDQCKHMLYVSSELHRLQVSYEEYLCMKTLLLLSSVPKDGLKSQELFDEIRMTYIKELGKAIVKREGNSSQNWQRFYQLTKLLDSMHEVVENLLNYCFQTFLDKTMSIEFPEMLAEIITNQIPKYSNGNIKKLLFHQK

Progesterone receptor = target: T4, Progesterone receptor (Homo sapiens, UniProt P06401); format: functional
T4 sequence (P06401 whole entry): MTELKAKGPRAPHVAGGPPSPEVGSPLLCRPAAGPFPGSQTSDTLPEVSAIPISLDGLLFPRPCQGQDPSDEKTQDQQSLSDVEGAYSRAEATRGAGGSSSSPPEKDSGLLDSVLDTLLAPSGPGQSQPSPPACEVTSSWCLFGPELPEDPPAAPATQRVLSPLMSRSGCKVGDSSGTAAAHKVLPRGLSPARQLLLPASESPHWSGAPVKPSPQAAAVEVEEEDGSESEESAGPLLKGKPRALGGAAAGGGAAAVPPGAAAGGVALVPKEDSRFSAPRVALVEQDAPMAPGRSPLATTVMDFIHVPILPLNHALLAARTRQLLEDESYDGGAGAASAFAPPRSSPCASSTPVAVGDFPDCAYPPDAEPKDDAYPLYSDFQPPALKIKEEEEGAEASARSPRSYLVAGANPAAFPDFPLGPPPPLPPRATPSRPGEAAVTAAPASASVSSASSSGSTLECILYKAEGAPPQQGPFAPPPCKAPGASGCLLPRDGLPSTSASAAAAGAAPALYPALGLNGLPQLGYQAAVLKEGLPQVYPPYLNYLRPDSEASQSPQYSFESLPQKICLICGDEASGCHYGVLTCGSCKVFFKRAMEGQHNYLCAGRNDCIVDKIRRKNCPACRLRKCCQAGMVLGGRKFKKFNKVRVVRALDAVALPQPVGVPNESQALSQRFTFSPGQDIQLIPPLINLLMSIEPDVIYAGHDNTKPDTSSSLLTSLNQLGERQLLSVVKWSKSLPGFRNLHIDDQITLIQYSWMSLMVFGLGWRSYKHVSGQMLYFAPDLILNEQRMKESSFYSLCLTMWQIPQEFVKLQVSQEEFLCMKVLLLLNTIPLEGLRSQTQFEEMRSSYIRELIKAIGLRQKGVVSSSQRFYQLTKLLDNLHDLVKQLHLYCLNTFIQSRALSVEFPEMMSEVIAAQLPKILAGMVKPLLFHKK

Measured: AC50
Also: assay procedure not described here.

Chain of Muscarinic acetylcholine receptor M3 (P20309 whole entry): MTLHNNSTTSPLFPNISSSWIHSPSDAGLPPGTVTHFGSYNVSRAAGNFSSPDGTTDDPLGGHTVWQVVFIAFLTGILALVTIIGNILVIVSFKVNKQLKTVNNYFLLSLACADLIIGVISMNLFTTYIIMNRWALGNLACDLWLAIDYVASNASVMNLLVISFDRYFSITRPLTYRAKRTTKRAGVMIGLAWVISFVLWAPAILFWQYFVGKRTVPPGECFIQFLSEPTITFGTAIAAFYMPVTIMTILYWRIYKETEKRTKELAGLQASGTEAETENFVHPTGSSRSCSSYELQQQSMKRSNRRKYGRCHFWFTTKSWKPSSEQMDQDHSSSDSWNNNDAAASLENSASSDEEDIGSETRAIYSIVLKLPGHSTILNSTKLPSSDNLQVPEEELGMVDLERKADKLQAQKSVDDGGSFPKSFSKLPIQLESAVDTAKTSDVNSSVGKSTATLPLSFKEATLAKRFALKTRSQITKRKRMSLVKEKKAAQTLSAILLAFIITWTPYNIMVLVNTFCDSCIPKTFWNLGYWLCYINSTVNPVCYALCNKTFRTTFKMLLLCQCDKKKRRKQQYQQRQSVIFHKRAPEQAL
Chain of Beta-2 adrenergic receptor (P07550 whole entry): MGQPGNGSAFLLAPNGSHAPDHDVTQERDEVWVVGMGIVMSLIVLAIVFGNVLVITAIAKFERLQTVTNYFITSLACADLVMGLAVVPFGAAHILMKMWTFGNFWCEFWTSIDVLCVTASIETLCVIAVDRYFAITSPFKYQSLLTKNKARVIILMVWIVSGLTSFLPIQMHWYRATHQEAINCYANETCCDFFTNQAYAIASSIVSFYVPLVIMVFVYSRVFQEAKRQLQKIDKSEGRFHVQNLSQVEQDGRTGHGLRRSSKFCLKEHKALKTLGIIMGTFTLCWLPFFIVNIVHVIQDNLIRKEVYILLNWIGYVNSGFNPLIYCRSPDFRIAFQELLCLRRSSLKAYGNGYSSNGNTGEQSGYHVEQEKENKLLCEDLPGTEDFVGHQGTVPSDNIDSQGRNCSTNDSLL
Chain of Neuronal acetylcholine receptor subunit alpha-4 (P43681 whole entry): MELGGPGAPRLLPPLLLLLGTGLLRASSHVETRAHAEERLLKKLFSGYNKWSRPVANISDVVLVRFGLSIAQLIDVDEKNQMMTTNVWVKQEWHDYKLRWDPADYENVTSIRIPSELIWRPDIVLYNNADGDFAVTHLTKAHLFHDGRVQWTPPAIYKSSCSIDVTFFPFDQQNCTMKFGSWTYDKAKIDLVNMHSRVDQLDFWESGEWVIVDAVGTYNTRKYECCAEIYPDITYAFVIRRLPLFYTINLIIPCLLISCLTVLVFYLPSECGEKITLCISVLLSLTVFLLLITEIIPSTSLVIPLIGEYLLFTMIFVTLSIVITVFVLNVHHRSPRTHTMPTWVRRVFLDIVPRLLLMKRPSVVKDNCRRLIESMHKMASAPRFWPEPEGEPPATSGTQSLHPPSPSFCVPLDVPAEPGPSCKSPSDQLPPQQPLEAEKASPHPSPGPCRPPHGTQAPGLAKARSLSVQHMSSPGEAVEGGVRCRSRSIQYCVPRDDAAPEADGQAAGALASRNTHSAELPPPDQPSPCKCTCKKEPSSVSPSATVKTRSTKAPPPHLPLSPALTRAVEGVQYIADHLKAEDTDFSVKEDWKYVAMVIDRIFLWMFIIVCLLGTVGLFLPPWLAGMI

COCC1=C(C(=O)OC(C)OC(=O)OC(C)C)N2C(=O)[C@@H](NC(=O)/C(=N\OC)c3csc(N)n3)[C@H]2SC1 (stereo partly specified) [CEFPODOXIME PROXETIL]
> 30 µM: [1] | [2]

CO/N=C(\C(=O)N[C@@H]1C(=O)N2C(C(=O)OCOC(=O)C(C)(C)C)=C(C)CS[C@H]12)c1csc(N)n1
> 30 µM: [1] | [2]

O=C(Cn1ccnc1[N+](=O)[O-])NCc1ccccc1 [BENZNIDAZOLE]
> 30 µM: all assays above
